Data from patent US11857601B2, “Pharmaceutical composition for cancer treatment comprising fusion protein including IL-2 protein and CD80 protein and anticancer drug” (GI INNOVATION, INC., priority 2020, dated 2024).
Marks after values point to notes of the source that are not given here.

Key:
LL/2 cell line = assay: mGI-101 and Axitinib in LL/2 allotransplanted tumor model; assay type: in vivo, C57BL/6 mice; conditions: mGI-101 3 mg/kg IP, Axitinib 30 mg/kg PO
Experimental: (§6) Mouse-derived colorectal cancer cells, CT26 (Mus musculus, Colon adenocarcinoma), and mouse-derived lung cancer cells, LL/2 (Mus musculus, Lung adenocarcinoma), were purchased from ATCC (USA) and used for the test. The cells to be used for the test were thawed, mixed with RPMI1640 (A1049101, Thermofisher scientific) medium containing 10% FBS (fetal bovine serum, Gibco, 10082-147), and then placed in a cell culture flask, and cultured in a 37° C., 5% CO2 incubator. The cells were washed with PBS, and then the cells were isolated using Trypsin-EDTA (15090, Gibco), and centrifugation (125×g, 5 minutes) was performed to discard the supernatant, and then the cells were suspended in a new medium to obtain the cell suspension. The viability of the cells was identified, and then a cell line was prepared by diluting in a medium to a concentration of 5.0×10^6 cells/mL.
(§7) 6-week-old male BALB/cAnHsd mice or C57BL/6NHsd mice were purchased and used for the test. After the end of the acclimation period of 7 days, the cells were transplanted into healthy animals. The cell suspension (5×10^6 cells/mL) was dispensed, and filled into a disposable syringe, and transplantation of the suspension was performed by subcutaneous administration at 0.1 mL/head in the right dorsal region of the animals. General symptoms were observed once a day during the engraftment and growth period after cell line transplantation.
(§8) After the inoculation of the cell line was performed, when the tumor size at the site to which the cell line was transplanted reached about 50 mm^3, the tumor size of each group was distributed as uniformly as possible according to the ranked tumor size.
(§9) The test substance was administered orally or intraperitoneally, and administered for 3 weeks depending on the composition of the test group. In the case of oral administration, the animals were fixed with the cervical spine skin fixation method, and administered directly into the stomach using a sonde for oral administration. In the case of intraperitoneal administration, the animals were fixed with the cervical spine skin fixation method, and administered intraperitoneally using a syringe equipped with a 26 gauge needle. The administration rate was not to exceed 200 μl/min.
Syngeneic model was prepared by subcutaneously transplanting the LL/2 cell line into C57BL/6 mice, and then the test substance was administered to evaluate the anticancer effect.

CT26 cells [1] = assay: mGI-101 and Axitinib in CT26 allotransplanted tumor model; conditions: mGI-101 3 mg/kg IP, Axitinib 30 mg/kg PO;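 also: subcutaneous CT26 syngeneic tumors in male BALB/c mice, dosing started once tumors were near 50 mm^3, drugs given orally or intraperitoneally for up to 3 weeks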
Experimental: as §6, §7, §8, §9
Syngeneic model was prepared by subcutaneously transplanting the CT26 cell line into Balb/c mice, and then the test substance was administered to evaluate the anticancer effect.

EMT6 cells = assay: mGI-101 and Paclitaxel in EMT6 allotransplanted tumor model; assay type: in vivo, BALB/c mice
Experimental: EMT6 cells were purchased from ATCC (USA) and cultured in Waymouth MB 751/1 medium (WELGENE) containing 10% FBS (Gibco) and 1% antibiotic/antifungal agent (Gibco). The cultured cells were harvested using trypsin (Gibco), and then a high-concentration cell suspension (2×10^6 cells/0.4 mL) for 10 mice was prepare with PBS and stored on ice until injected into mice. In order to establish an allotransplanted tumor model, the skin was incised slightly away from the 4th nipple position from the upper right of the ventral region of BALB/c female mice (7-week-old), and the location of mammary fat pad at the incised site was identified, and then EMT6 cell line prepared inside the mammary fat pad was injected at 2×10^5 cells/40 uL/head.
A certain period of time after cell inoculation of the tumor grafts of the mice, the tumor volume was measured for animals with no abnormalities in the health condition of the animals, and the subjects were selected so that the average of each group reached less than 70-100 mm^3, and the selected animals were assigned as evenly as possible based on tumor volume and body weight, each group including 10 animals. As shown in Table 24 and FIG. 106, the test groups were configured and the test substances were administered.
(§1) Clinical symptoms such as a disease and a behavioral change were observed once a day during the test period, and deceased animals were identified, and the mice were sacrificed when the tumor size reached a size of 4,000 mm^3.
(§2) The tumor volume before administration of each subject was set as the value measured at the time of grouping, and the anti-tumor efficacy was evaluated as compared with the vehicle control.
(§3) All statistical calculations were performed using Prism 8.0 (Graph Pad Software Inc, USA). The comparison of tumor volume measurements was made through two-way analysis of variance followed by Tukey's multiple comparison test. A p value of less than 0.05 was considered significant.

[2] = system: CD8+ T cells and CD4+/FoxP3+ Treg cells; assay: Proliferation of CD8+ T cells and Treg cells in PBMCs (Exp. Ex. 10); assay type: cell-based, human; conditions: for proportion of CD8+ T cells: anti-CD3ε 1 μg/ml, 7 days, compared with no stimulus, anti-CD3 antibody alone and GI101C1; for proliferation of CD4+/FoxP3+ Treg cells: compared with no stimulus and anti-CD3 antibody alone
Experimental: Human PBMCs were purchased from Allcells (Lot #3014928, USA). […] CellTrace CFSE dye was used, which was reacted with the human PBMCs under a light-blocking condition at […] for 20 minutes. The cells were labeled with CFSE by being reacted with 1 μM CellTrace CFSE dye at 37° C. for 20 minutes. CFSE not bound to the cells was removed by being reacted for 5 minutes with a culture medium having a 5-fold volume of the staining reaction solution and then by being centrifuged at 1,300 rpm for 5 minutes. The CFSE-labeled PBMCs were resuspended in the culture medium (RPMI1640 medium containing 10% fetal bovine serum, 10 mM HEPES, 100 U/ml penicillin/streptomycin, 1 mM sodium pyruvate, 55 μM 2-mercaptoethanol, 1 mM non-essential amino acid, and 2 mM L-glutamine), and then added to a 96-well microplate at 1×10^5 cells per well.
The incubated cells were examined for their degree of proliferation by measuring, with FACS analysis using anti-human CD4-PE antibody (BioLegend, USA), anti-human CD8-PE/Cy7 antibody (BioLegend, USA), and anti-human FoxP3-APC antibody (BioLegend, USA), a proportion of CD8+ T cells that had not been labeled with CFSE.

MDA-MB-231 cells = assay: GI101 and Keytruda in humanized mice xenotransplanted with MDA-MB-231; assay type: in vivo, human
Experimental: Fetal bovine serum (FBS, 16000-044, Thermofisher scientific, USA), penicillin-streptomycin; 10,000 units/ml penicillin and 10,000 μg/ml streptomycin (15140122, Thermofisher scientific, USA); and RPMI1640 (A1049101, Thermofisher scientific, USA) per 100 ml were mixed and used.
The cells were suspended using Trypsin-EDTA (Cat. 25200-072, Thermofisher scientific, USA). The suspended cells were collected by centrifugation (125×g, 5 minutes) using a centrifuge, transferred to a new medium and a new flask, and passage cultured. The cultured cells were put to a centrifugation tube on the day of cell line transplantation and then collected. […] 8-week-old female NSGb2m (NOD.Cg-B2m^tm1UncPrkdc^scidIl2rg^tm1Wjl/SzJ) mice were purchased from Joongang Bio (Korea) and used for the test. The body weight was measured the next day after the end of the quarantine and acclimation period, and then the human-derived PBMC cell suspension (5×10^6 cells/0.2 ml) prepared for healthy animals was filled into a disposable syringe and administered to the caudal vein of the animals. General symptoms were observed once a day after cell transplantation.
A certain period of time after the cell transplantation, the tumor volume was measured for animals with no abnormalities in the health condition of the animals, and 32 subjects were selected so that the average of each group reached 40 to 80 mm^3. The selected animals were grouped into a total of 4 groups as evenly as possible based on tumor volume and body weight, each group including 8 animals.
General symptoms such as appearance, behavior, and excrement were observed once a day during the observation period, and deceased animals were identified. Body weight was measured on the day of cell line transplantation, twice a week, and on the day of animal sacrifice. The major axis (maximum length, L) and minor axis (perpendicular width, W) of the tumor were measured using a caliper (Digital caliper, mitutoyo, Japan) three times a week during the observation period, and the tumor volume (TV) was calculated by substituting them into the following equations.
(§4) The tumor volume before administration of each subject was set as the value measured at the time of grouping.

CT26 cells [3] = assay: mGI-101 and Lenvatinib in CT26 allotransplanted tumor model; assay type: in vivo, BALB/c mice
Experimental: (§5) CT26 cells were purchased from ATCC (USA) and cultured in RPMI1640 medium (Gibco) containing 10% FBS (Gibco) and 1% antibiotic/antifungal agent (Gibco). The cultured cells were harvested using trypsin (Gibco) and then suspended in PBS. In order to establish an allotransplanted tumor model, 1×10^6 CT26 cells were subcutaneously injected into the right flank of BALB/c female mice (7-week-old).
A certain period of time after the cell transplantation, the tumor volume was measured for animals with no abnormalities in the health condition of the animals, and the mice were assigned so that the average tumor volume of each group was less than 70-100 mm^3, each group including 10 mice.
In the case of Lenvatinib powder, the dose was calculated and weighed, and it was prepared to the dose concentration using a 0.5% methyl cellulose excipient. In order to minimize the loss of the test substance, the doses for 3 or 4 days were weighed, and prepared using the excipient on the day of administration and injected.
as §1, §4, §3

Renca cells = assay: mGI-101 and Lenvatinib in Renca allotransplanted tumor model; assay type: in vivo, BALB/c mice; conditions: mGI-101 twice a week (BIW), Lenvatinib daily, 10 mice per group
Experimental: as §5, with “Renca” for “CT26”, “5×10^6 Renca” for “1×10^6 CT26”, “back” for “right flank”, “(8-week-old).” for “(7-week-old).”
A certain period of time after cell inoculation of the tumor grafts of the mice, the tumor volume was measured for animals with no abnormalities in the health condition of the animals, and the mice were randomly selected and assigned, each group including 10 mice.
The death of the mouse, the type of general symptoms, the date of onset, and the severity of symptoms were observed once a day during the test period, and recorded for each subject.
as §2, §3

[4] = system: CT26 (mouse colon carcinoma) cells; assay: mGI-101 and Galunisertib in CT26 allotransplanted tumor model; assay type: in vivo, BALB/cAnHsd mice; conditions: mean ± SD, mGI-101 3 mg/kg IP, Galunisertib 75 mg/kg PO
Experimental: 6-week-old male BALB/cAnHsd mice were purchased and used for the test.
The tumor size was measured three times a week for 3 weeks from the day of start of administration of the test substance. The major axis and minor axis of the tumor were measured using a caliper, and the tumor size (tumor volume, TV) was calculated using the following equations. TV (mm^3)=(W^2×L)/2 [Equation 1]

[5] = day 42 vs day 21 after tumor transplantation, 8 animals per group
[6] = end of the experiment, 10 mice per group

CNC(=O)c1ccccc1Sc1ccc2c(/C=C/c3ccccn3)n[nH]c2c1 [Axitinib, reference compound]
Tumor size (LL/2 cell line; Day 0, mean ± SD): 55.77 ± 11.25 mm^3 | Tumor size (LL/2 cell line; Day 2, mean ± SD): 88.73 ± 21.26 mm^3 | Tumor size (LL/2 cell line; Day 5, mean ± SD): 179.31 ± 52.62 mm^3 | Tumor size (LL/2 cell line; Day 7, mean ± SD): 362.30 ± 97.92 mm^3 | Tumor size (LL/2 cell line; Day 9, mean ± SD): 584.17 ± 172.94 mm^3 | Tumor size (LL/2 cell line; Day 12, mean ± SD): 892.90 ± 256.88 mm^3 | Tumor size (LL/2 cell line; Day 14, mean ± SD): 1292.27 ± 385.43 mm^3 | Tumor size (LL/2 cell line; Day 16, mean ± SD): 1775.26 ± 462.50 (9) mm^3 | Tumor size (LL/2 cell line; Day 19, mean ± SD): 2551.08 ± 695.31 (9) mm^3 | Tumor size (LL/2 cell line; Day 21, mean ± SD): 4236.33 ± 1060.18 (9)**^,## mm^3 | Tumor size (CT26 cells [1]; Day 0, mean ± SD): 61.67 ± 12.58 mm^3 | Tumor size (CT26 cells [1]; Day 5, mean ± SD): 261.76 ± 61.86 mm^3 | Tumor size (CT26 cells [1]; Day 7, mean ± SD): 354.05 ± 104.90 mm^3 | Tumor size (CT26 cells [1]; Day 9, mean ± SD): 442.98 ± 148.70 mm^3 | Tumor size (CT26 cells [1]; Day 12, mean ± SD): 529.85 ± 206.76 mm^3 | Tumor size (CT26 cells [1]; Day 14, mean ± SD): 671.72 ± 303.14* mm^3 | Tumor size (CT26 cells [1]; Day 16, mean ± SD): 970.72 ± 475.99** mm^3 | Tumor size (CT26 cells [1]; Day 19, mean ± SD): 1129.12 ± 639.16**** mm^3 | Tumor size (CT26 cells [1]; Day 21, mean ± SD): 1710.57 ± 1133.79**** mm^3

CC(=O)O[C@H]1C(=O)[C@@]2(C)[C@H]([C@H](OC(=O)c3ccccc3)[C@]3(O)C[C@H](OC(=O)[C@H](O)[C@@H](NC(=O)c4ccccc4)c4ccccc4)C(C)=C1C3(C)C)[C@]1(OC(C)=O)CO[C@@H]1C[C@@H]2O [Paclitaxel, reference compound]
number of mice with tumor growth inhibition rate of 30% or more (EMT6 cells; EMT6, 10 animals per group): 7 mice | number of mice with tumor growth inhibition rate of 50% or more (EMT6 cells; EMT6, 10 animals per group): 4 mice | number of mice with tumor growth inhibition rate of 80% or more (EMT6 cells; EMT6, 10 animals per group): 2 mice | tumor size vs control (EMT6 cells; day 13, mGI-101 3 mg/kg i.v. QW, Paclitaxel 10 mg/kg i.p. 7 consecutive days): statistically significantly lower

Proleukin: Proleukin (Novartis, hIL-2); human recombinant IL-2 [reference compound]
proportion of CD8+ T cells [2]: significant increase | proliferation of CD4+/FoxP3+ Treg cells [2]: significant increase

Keytruda: Keytruda (Pembrolizumab, MSD), an anti-PD-1 antibody [reference compound]
tumor growth (MDA-MB-231 cells; GI101 6 mg/kg, Keytruda 5 mg/kg, 4 administrations, compared with the control (hIgG4)): tumor growth inhibition | number of mice with tumor growth inhibition rate of 30% or more (MDA-MB-231 cells; [5]): 7 mice | number of mice with tumor growth inhibition rate of 50% or more (MDA-MB-231 cells; [5]): 5 mice | number of mice with tumor growth inhibition rate of 80% or more (MDA-MB-231 cells; [5]): 3 mice

GI101C2: comparative fusion protein: Fc domain, linker, IL-2 variant (2M) (R38A, F42A); SEQ ID NO: 19
proportion of CD8+ T cells [2]: significant increase | proliferation of CD4+/FoxP3+ Treg cells [2]: significant increase

COc1cc2nccc(Oc3ccc(NC(=O)NC4CC4)c(Cl)c3)c2cc1C(N)=O [Lenvatinib]
number of mice with tumor growth inhibition rate of 30% or more (CT26 cells [3]; [6]): 6 mice | number of mice with tumor growth inhibition rate of 50% or more (CT26 cells [3]; [6]): 4 mice | number of mice with tumor growth inhibition rate of 80% or more (CT26 cells [3]; [6]): 1 mice | anticancer effect (tumor size) compared with the control (CT26 cells [3]; mGI-101 3 mg/kg i.v. QW, Lenvatinib 3 mg/kg p.o. daily, Lenvatinib day 18, 21, combination day 16, 18, 21): statistically significant anticancer effect | number of mice with tumor growth inhibition rate of 30% or more (Renca cells): 4 mice | number of mice with tumor growth inhibition rate of 50% or more (Renca cells): 2 mice | number of mice with tumor growth inhibition rate of 80% or more (Renca cells): no mouse

Cc1cccc(-c2nn3c(c2-c2ccnc4ccc(C(N)=O)cc24)CCC3)n1 [Galunisertib, reference compound]
Tumor size ([4]; Day 0): 61.98 ± 12.23 mm^3 | Tumor growth inhibition ([4]; Day 2): 15.60 ± 38.26% | Tumor size ([4]; Day 2): 187.20 ± 55.14 mm^3 | Tumor growth inhibition ([4]; Day 4): 34.09 ± 27.14% | Tumor size ([4]; Day 4): 260.69 ± 78.70 mm^3 | Tumor growth inhibition ([4]; Day 7): 21.12 ± 34.98% | Tumor size ([4]; Day 7): 398.78 ± 146.30 mm^3
